Tests used:
[1] = test system: DBA2; assay: DBA2 % Protection; type: in vivo

CC(C)CC(CN)CP(=O)(O)O (centres unmarked) [PO3H2, (2-Aminomethyl-4-methyl-pentyl)-phosphonic acid]
DBA2 % Protection 1 Hr [1]: 0% | DBA2 % Protection 2 Hr [1]: 0%

CC(C)CC(CN)Cc1noc(=S)[nH]1 (centres unmarked)
DBA2 % Protection 1 Hr [1]: 0% | DBA2 % Protection 2 Hr [1]: 0%

CC(C)CC(CN)Cc1noc(=S)[nH]1.Cl (centres unmarked)
melting point: 183 to 185 °C
